Data as given in patent publication US10280163B2 (BeiGene, Ltd., priority 2015, dated 2019).
Where two headings read alike, the source gives them in different places.

How the values were obtained:
[1] = target: T1, Recombinant IDO1 (Homo sapiens, UniProt P14902); assay: IDO1 enzymatic assay; format: biochemical; conditions: 50 nM IDO1, 1.3 mM D-tryptophan, read-out: Enzyme IC50 (nM) IDO1
T1 construct: His tag (N); made in house; host or cells: E. coli
Experimental: Recombinant IDO1 was overexpressed and purified from E. coli cells with an N-terminal His tag. IDO1 enzymatic assay was carried out using a methodology similar to described in the literature (J. Biol. Chem. (1980), 255, 1339-1345.). The reaction mixture contains 50 nM IDO1, 1.3 mM D-tryptophan, 5 mM L-ascorbic acid, 6.25 μM methylene Blue, 0.4 mg/mL catalase and compound (or DMSO) in a buffer containing 50 mM potassium phosphate pH 7.5 and 0.1% BSA. After incubation at 24° C. for 1.5 hours, absorbance of the reaction mixture was continuously read at 321 nm to monitor the formation of N′-formylkynurenine by a FULOstar OMEGA plate reader (BMG LABTECH) for 1 hour. The enzymatic activity was determined by measuring the slope of the linear absorbance increase as a function of time. The IC50s are calculated based on remaining enzyme activity in the presence of increasing concentrations of compounds.

[2] = target: T2, cellular IDO1 in HeLa cells (Homo sapiens, UniProt P14902); assay: HeLa cell-based IDO1 Kyn (kynurenine) production assay; conditions: IFN-γ 100 ng/mL, 48 hours
T2 construct: endogenous in cells; host or cells: HeLa cells (American Type Tissue Culture Collection), induced with human recombinant IFN-γ
Experimental: HeLa Cell-Based IDO1 Kyn (Kynurenine) Production Assay:
The inhibitory activity of IDO1 inhibitors is determined by using a colorimetric reaction to measure Kyn generated from L-Trp (L-Tryptophon) oxidation by cellular IDO1 in HeLa cells after induction of IDO1 by IFN-γ.
Hela cells were obtained from the American Type Tissue Culture Collection and recovered in 10% FBS-containing phenol red-free DMEM medium supplemented with 0.4 mM L-Trp. Cells were plated onto a 96-well plate (100 μl/well) at 8000 cells per well. Human recombinant IFN-γ (8901SC, CST) was added to cells (final concentration 100 ng/mL) to stimulate endogenous IDO1. Compounds at different concentrations diluted in dimethylsulfoxide (DMSO) were added simultaneously with IFN-γ. Cells were kept at 37° C. in a humidified incubator supplied with 5% CO2. After 48 hours of incubation, 100 μl supernatant from each well was removed to a new plate. The protein in the medium was precipitated with the addition of 8 μl 6N trichloroacetic acid. The plate was incubated at 60° C. for 45 min and then centrifugation at 2500 rpm for 10 min to remove sediments. 80 μl supernatants were carefully removed to a new clean plate and added with an equal volume of 2% 4-(Dimethylamino) benzaldehyde (D2004, sigma) dissolved in glacial acetic acid. The absorbance at 480 nm wavelength derived from Kyn was measured using a FULOstar OMEGA plate reader (BMG LABTECH). The IC50 for each compound was derived from fitting the dose-response data to the four-parameter logistic model by using Graphpad Prism software.

[3] = Table 2, 8-substituted imidazo[1,5-a]pyridines
[4] = Table 1, 5-substituted imidazo[1,5-a]pyridines

T2 sequence (P14902 whole entry): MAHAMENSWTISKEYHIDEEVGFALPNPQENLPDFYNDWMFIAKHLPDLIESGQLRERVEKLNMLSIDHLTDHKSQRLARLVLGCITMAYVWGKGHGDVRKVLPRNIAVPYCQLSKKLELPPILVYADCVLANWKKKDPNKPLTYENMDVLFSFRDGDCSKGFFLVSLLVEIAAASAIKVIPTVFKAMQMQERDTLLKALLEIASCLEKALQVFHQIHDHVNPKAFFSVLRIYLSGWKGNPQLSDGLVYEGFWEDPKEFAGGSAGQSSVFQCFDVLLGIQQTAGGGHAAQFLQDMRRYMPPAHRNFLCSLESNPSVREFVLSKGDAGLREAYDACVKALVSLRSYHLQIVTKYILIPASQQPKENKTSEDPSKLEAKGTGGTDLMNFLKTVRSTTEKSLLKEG
T1 sequence (P14902 whole entry): as above

Structure (SMILES) | IC50 [1, 3] [nM] | EC50 [2, 3] [nM] | IC50 [1, 4] [nM] | EC50 [2, 4] [nM]
CC(C)(C)C(O)c1cccc2cncn12 (stereo not shown) [Example A004, 1-(imidazo[1,5-a]pyridin-5-yl)-2,2-dimethylpropan-1-ol] |  |  | 360 | > 10000
CC(C)C(O)c1cccc2cncn12 (stereo not shown) [Example A005, 1-(imidazo[1,5-a]pyridin-5-yl)-2-methylpropan-1-ol] |  |  | 1500 | > 10000
OC(c1ccc(F)cc1)c1cccc2cncn12 (stereo not shown) [Example A008, (4-fluorophenyl)(imidazo[1,5-a]pyridin-5-yl)methanol] |  |  | 2400 | > 10000
CC(O)(c1cccc2cncn12)C1CCCCC1 (stereo not shown) [Example A016, 1-cyclohexyl-1-(imidazo[1,5-a]pyridin-5-yl)ethan-1-ol] |  |  | 23000 | > 10000
FC(c1cc(Cl)cc2cncn12)C1CCCCC1 (stereo not shown) [Example A021, 7-chloro-5-(cyclohexylfluoromethyl)imidazo[1,5-a]pyridine] |  |  | 1800 | > 10000
OC(CC1CCCCC1)c1ccc(Cl)c2cncn12 (stereo not shown) [Example A025, 1-(8-chloroimidazo[1,5-a]pyridin-5-yl)-2-cyclohexylethan-1-ol] |  |  | 2500 | > 10000
OCC1(C(O)c2cc(Cl)cc3cncn23)CCCCC1 (stereo not shown) [Example A106, (7-chloroimidazo[1,5-a]pyridin-5-yl)(1-(hydroxymethyl)cyclohexyl)methanol] |  |  | 120 | 1660
CC(C1CCCCC1)C(O)c1c(Cl)ccc2cncn12 (stereo not shown) [Example A121, 1-(6-chloroimidazo[1,5-a]pyridin-5-yl)-2-cyclohexylpropan-1-ol] |  |  | 29 | 1570
OC(c1c(C2CC2)ccc2cncn12)C1CC1 (stereo not shown) [Example A137, cyclopropyl(6-cyclopropylimidazo[1,5-a]pyridin-5-yl)methanol] |  |  | 25 | 3760
OC1CCC([C@H](O)c2c(C3CC3)ccc3cncn23)CC1 (stereo partly drawn) [Example A142a, (1R,4s)-4-((S)-(6-cyclopropylimidazo[1,5-a]pyridin-5-yl)(hydroxy)methyl)cyclohexan-1-ol] |  |  | 12 | 661
OC(c1c(C2=CCCC2)ccc2cncn12)C1CCCCC1 (stereo not shown) [Example A157, cyclohexyl(6-(cyclopent-1-en-1-yl)imidazo[1,5-a]pyridin-5-yl)methanol] |  |  | 200 | 2680
OC(c1c(C2CCCC2)ccc2cncn12)C1CCCCC1 (stereo not shown) [Example A158, cyclohexyl(6-cyclopentylimidazo[1,5-a]pyridin-5-yl)methanol] |  |  | 880 | 933
O=C(O)c1cccc(C(O)c2c(C3CC3)ccc3cncn23)c1 (stereo not shown) [Example A159, 3-((6-cyclopropylimidazo[1,5-a]pyridin-5-yl)(hydroxy)methyl)benzoic acid] |  |  | 5500 | > 10000
O=C(NC1CC1)c1cccc(C(O)c2c(C3CC3)ccc3cncn23)c1 (stereo not shown) [Example A160, N-cyclopropyl-3-((6-cyclopropylimidazo[1,5-a]pyridin-5-yl)(hydroxy)methyl)benzamide] |  |  | 81 | 5610
O=C1C2CCC(C2)C1C(O)c1c(C2CC2)ccc2cncn12 (stereo not shown) [Example A161, 3-((6-cyclopropylimidazo[1,5-a]pyridin-5-yl)(hydroxy)methyl)bicyclo[2.2.1]heptan-2-one] |  |  | 57000 | > 10000
OC(c1c(C2CC2)ccc2cncn12)C1CC2CCC1C2 (stereo not shown) [Example A162, (Bicyclo[2.2.1]heptan-2-yl)(6-cyclopropylimidazo[1,5-a]pyridin-5-yl)methanol] |  |  | 32 | 34
O[C@H](c1c(C2CC2)ccc2cncn12)C1CC2CCC1C2 (stereo partly drawn) [Example A162a, (1S)-(bicyclo[2.2.1]heptan-2-yl)(6-cyclopropylimidazo[1,5-a]pyridin-5-yl)methanol] |  |  | 11 | 8.8
O[C@@H](c1c(C2CC2)ccc2cncn12)C1CC2CCC1C2 (stereo partly drawn) [Example A162b, (1R)-(bicyclo[2.2.1]heptan-2-yl)(6-cyclopropylimidazo[1,5-a]pyridin-5-yl)methanol] |  |  | 1600 | 6040
OC(CC12CC3CC(CC(C3)C1)C2)c1c(C2CC2)ccc2cncn12 (stereo not shown) [Example A163, 2-(Adamantan-1-yl)-1-(6-cyclopropylimidazo[1,5-a]pyridin-5-yl)ethan-1-ol] |  |  | 94 | 102
OC1CCCC(C(O)c2c(C3CC3)ccc3cncn23)C1 (stereo not shown) [Example A164b, 3-((6-Cyclopropylimidazo[1,5-a]pyridin-5-yl)(hydroxy)methyl)cyclohexan-1-ol] |  |  | 42 | 226

Second part, the compound after the results:

IC50 [1, 3] [nM] | EC50 [2, 3] [nM] | IC50 [1, 4] [nM] | EC50 [2, 4] [nM] | Structure (SMILES)
46000 | > 10000 |  |  | CC(C)c1ccn2cncc2c1C(O)[C@H]1CC[C@@H](O)CC1 (single isomer, unassigned) [Example B121d]
78 | 295 |  |  | O[C@H](c1c(C2CC2)ccn2cncc12)C1CC2CCC1C2 (single isomer, unassigned) [Example B122b]
39000 | > 10000 |  |  | OC(c1c([C@H]2C[C@@H]2F)ccn2cncc12)C1CCCCC1 (single isomer, unassigned) [Example B128b, Cyclohexyl(7-((trans)-2-fluorocyclopropyl)imidazo[1,5-a]pyridin-8-yl)methanol]
110000 | > 10000 |  |  | OC(c1c([C@H]2C[C@@H]2F)ccn2cncc12)C1CCCCC1 (single isomer, unassigned) [Example B128c, Cyclohexyl(7-((trans)-2-fluorocyclopropyl)imidazo[1,5-a]pyridin-8-yl)methanol]
1400 | > 10000 |  |  | CS(=O)(=O)N1CCCC(C(O)c2c(C3CC3)ccn3cncc23)C1 (single isomer, unassigned) [Example B130a, (7-Cyclopropylimidazo[1,5-a]pyridin-8-yl)(1-(methylsulfonyl)piperidin-3-yl)methanol]
1200 | 909 |  |  | CS(=O)(=O)N1CCCC(C(O)c2c(C3CC3)ccn3cncc23)C1 (single isomer, unassigned) [Example B130b, (7-Cyclopropylimidazo[1,5-a]pyridin-8-yl)(1-(methylsulfonyl)piperidin-3-yl)methanol]
1900 | > 10000 |  |  | CC(=O)N1CCCC(C(O)c2c(C3CC3)ccn3cncc23)C1 (single isomer, unassigned) [Example B133a, 1-(3-((7-Cyclopropylimidazo[1,5-a]pyridin-8-yl)(hydroxy)methy)piperidin-1-yl)ethan-1-one]
1100 | 6810 |  |  | CC(=O)N1CCCC(C(O)c2c(C3CC3)ccn3cncc23)C1 (single isomer, unassigned) [Example B133b, 1-(3-((7-Cyclopropylimidazo[1,5-a]pyridin-8-yl)(hydroxy)methy)piperidin-1-yl)ethan-1-one]
1100 | > 10000 |  |  | NS(=O)(=O)N1CCCC(C(O)c2c(C3CC3)ccn3cncc23)C1 (single isomer, unassigned) [Example B135a, 3-((7-Cyclopropylimidazo[1,5-a]pyridin-8-yl)(hydroxy)methyl)piperidine-1-sulfonamide]
950 | 1350 |  |  | NS(=O)(=O)N1CCCC(C(O)c2c(C3CC3)ccn3cncc23)C1 (single isomer, unassigned) [Example B135b, 3-((7-Cyclopropylimidazo[1,5-a]pyridin-8-yl)(hydroxy)methyl)piperidine-1-sulfonamide]
56 | 79 |  |  | OC(c1c(C2CC2)ccn2cncc12)C1CCC(c2ccccc2)CC1 (single isomer, unassigned) [Example B143a, (S)-(7-cyclopropylimidazo[1,5-a]pyridin-8-yl)(trans or cis-4-phenylcyclohexyl)methanol]
300 | 8660 |  |  | OC(c1c(C2CC2)ccn2cncc12)C1CCC(c2ccccc2)CC1 (single isomer, unassigned) [Example B143b, (S)-(7-cyclopropylimidazo[1,5-a]pyridin-8-yl)(cis or trans-4-phenylcyclohexyl)methanol]
